The text below walks through data of ChEMBL document CHEMBL1681693, “Synthesis and SAR of centrally active mGlu5 positive allosteric modulators based on an aryl acetylenic bicyclic lactam scaffold” (Bioorg Med Chem Lett, 2011).

Calls of active or inactive are those of the source. No cut-off for these calls is given here.

Experiment [1] has as its target T1, Metabotropic glutamate receptor 5 (Homo sapiens, UniProt P41594). As to the kind of experiment: Positive allosteric modulation of mGlu5 receptor assessed as calcium mobilization at 30 uM relative to glutamate. Format: functional. (In general: Calcium assays in cells follow changes in intracellular calcium, usually with a dye or a luminescent sensor.)
Target sequence in this assay (P41594 21-1212 limits assumed): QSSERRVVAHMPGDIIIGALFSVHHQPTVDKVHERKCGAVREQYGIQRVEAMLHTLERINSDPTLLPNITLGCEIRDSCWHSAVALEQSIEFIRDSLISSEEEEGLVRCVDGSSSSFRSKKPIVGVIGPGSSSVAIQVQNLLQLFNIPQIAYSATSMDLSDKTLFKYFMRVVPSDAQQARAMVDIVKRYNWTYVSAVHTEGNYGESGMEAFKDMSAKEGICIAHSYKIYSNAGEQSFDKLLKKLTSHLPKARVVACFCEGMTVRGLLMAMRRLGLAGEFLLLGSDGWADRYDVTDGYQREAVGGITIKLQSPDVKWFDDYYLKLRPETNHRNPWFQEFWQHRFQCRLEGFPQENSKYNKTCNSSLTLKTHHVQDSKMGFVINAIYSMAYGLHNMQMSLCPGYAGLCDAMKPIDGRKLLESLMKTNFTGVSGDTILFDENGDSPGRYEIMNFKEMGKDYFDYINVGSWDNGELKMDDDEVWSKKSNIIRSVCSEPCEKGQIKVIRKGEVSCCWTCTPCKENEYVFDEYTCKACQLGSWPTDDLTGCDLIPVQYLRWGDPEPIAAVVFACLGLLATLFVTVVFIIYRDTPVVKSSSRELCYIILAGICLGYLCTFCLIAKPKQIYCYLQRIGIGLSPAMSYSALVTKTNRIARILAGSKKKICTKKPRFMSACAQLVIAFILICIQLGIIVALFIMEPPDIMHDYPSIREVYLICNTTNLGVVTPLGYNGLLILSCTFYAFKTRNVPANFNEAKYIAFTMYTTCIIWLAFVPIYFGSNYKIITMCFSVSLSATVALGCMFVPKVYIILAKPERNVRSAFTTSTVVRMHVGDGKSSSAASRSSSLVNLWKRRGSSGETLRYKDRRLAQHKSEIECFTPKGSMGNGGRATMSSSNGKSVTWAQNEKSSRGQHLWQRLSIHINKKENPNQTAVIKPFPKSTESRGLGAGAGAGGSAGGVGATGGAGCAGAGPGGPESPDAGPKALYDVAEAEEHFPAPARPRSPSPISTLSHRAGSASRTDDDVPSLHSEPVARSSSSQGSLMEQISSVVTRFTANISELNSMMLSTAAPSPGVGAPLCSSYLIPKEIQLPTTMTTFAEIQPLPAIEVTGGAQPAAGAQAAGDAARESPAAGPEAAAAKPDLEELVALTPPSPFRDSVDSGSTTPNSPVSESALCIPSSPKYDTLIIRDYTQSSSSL
Experiment [2] deals with T1, Metabotropic glutamate receptor 5. Kind of experiment: Positive allosteric modulation of mGlu5 receptor assessed as calcium mobilization. Format: functional.
Target sequence in this assay (P41594 whole entry): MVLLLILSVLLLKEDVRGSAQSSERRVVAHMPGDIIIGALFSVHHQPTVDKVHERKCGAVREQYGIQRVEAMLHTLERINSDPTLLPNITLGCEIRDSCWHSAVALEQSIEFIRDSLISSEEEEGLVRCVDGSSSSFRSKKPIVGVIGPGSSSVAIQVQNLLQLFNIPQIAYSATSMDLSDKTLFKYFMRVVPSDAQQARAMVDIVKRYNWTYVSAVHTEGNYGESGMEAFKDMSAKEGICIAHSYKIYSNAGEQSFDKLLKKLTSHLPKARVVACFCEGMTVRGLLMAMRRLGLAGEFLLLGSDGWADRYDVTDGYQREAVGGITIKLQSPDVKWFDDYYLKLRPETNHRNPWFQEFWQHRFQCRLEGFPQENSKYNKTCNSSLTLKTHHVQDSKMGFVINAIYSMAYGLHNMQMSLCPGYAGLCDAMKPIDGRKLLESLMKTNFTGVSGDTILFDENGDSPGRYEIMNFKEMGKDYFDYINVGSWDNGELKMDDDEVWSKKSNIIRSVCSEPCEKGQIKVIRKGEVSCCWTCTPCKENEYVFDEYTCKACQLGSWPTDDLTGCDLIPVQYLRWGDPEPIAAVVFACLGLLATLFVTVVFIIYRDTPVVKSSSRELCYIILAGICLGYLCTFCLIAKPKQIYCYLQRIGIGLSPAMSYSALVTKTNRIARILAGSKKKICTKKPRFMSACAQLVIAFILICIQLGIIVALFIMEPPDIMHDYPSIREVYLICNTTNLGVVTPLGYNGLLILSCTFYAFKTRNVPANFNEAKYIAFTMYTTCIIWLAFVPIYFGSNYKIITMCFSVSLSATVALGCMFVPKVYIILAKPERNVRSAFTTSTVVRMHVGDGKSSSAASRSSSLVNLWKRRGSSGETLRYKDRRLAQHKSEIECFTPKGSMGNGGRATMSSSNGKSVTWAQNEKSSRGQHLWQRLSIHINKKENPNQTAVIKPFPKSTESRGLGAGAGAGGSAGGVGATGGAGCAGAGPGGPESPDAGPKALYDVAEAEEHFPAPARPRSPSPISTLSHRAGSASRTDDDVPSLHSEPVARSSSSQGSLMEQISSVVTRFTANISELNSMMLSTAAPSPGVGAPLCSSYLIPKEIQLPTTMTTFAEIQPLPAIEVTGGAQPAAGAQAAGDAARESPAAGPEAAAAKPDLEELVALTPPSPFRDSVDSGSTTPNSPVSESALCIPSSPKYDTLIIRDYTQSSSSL
A further experiment relates to Rattus norvegicus. Kind of experiment: Antipsychotic activity in rat assessed as reversal of amphetamine-induced hyperlocomotion at 30 mg/kg, ip. Set-up: dose 30 mg/kg. Format: functional, organism-based.
The target in experiment [3] is T1, Metabotropic glutamate receptor 5. As to the kind of experiment: Antagonist activity against mGlu5 receptor assessed as inhibition of calcium mobilization.
Target sequence in this assay (P41594 whole entry): as above

Turning to `O=C1NCCc2nc(C#Cc3cccc(F)c3)ccc21`, the Activity in experiment [1] is 72%. The EC50 (as a rule, the concentration needed to bring the measured effect to its halfway point) in experiment [2] was 290 nM.

On to `O=C1c2ccc(C#Cc3ccccc3)cc2CCN1CCN1CCC1`, for which, in experiment [1], the Activity was 77%. Further, the half-maximal effective concentration (EC50) in experiment [2] was found to be 4000 nM.

Regarding `O=C1c2ccc(C#Cc3cccc(F)c3)nc2CCN1CC1CCC1`, in experiment [1], the Activity came out at 53%. Moreover, in experiment [2], the concentration for a half-maximal effect (EC50) stood at 130 nM.

Consider `O=C1c2ccc(C#Cc3ccccc3)cc2CCN1CC1CC1`, for which the outcome with Rattus norvegicus was Active. In addition, the Activity in experiment [1] was found to be 69%. Moreover, the EC50 in experiment [2] is 180 nM.

Turning to `O=C1c2ccc(C#Cc3ccccc3)cc2CCN1Cc1ccccc1`, in experiment [1], the Activity worked out at 90%. The concentration giving a half-maximal response (EC50) in experiment [2] came out at 550 nM.

For the molecule `O=C1NCc2cc(C#Cc3ccccc3)ccc21`, the Activity in experiment [1] worked out at 69%.

As for `O=C1NCCc2cc(C#Cc3ccccc3F)ccc21`, in experiment [1], the Activity came to 80%. In experiment [2], the EC50 worked out at 150 nM.

Turning to `O=C1NC(=O)c2cc(C#Cc3ccccc3F)ccc21`, the Activity in experiment [1] stood at 93%. The EC50 in experiment [2] was determined as 12 nM.

In the case of `COc1cccc(C#Cc2ccc3c(c2)CCNC3=O)c1`, the Activity in experiment [1] turned out to be 58%. Moreover, in experiment [2], the EC50 was found to be 3400 nM.

`O=C1NCCc2cc(C#Cc3ccccc3Cl)ccc21`: the Activity in experiment [1] is 50%. The EC50 in experiment [2] is 3700 nM.

In the case of `O=C1NC(=O)c2cc(C#Cc3ccc(F)c(F)c3)ccc21`, the Activity in experiment [1] was 84%. For the same molecule, in experiment [2], the EC50 is 170 nM.

In the case of `O=C1NCCc2cc(C#Cc3ccc(F)cc3)ccc21`, in experiment [1], the Activity stood at 81%. For the same molecule, the EC50 in experiment [2] was found to be 260 nM.

For the molecule `O=C1c2ccc(C#Cc3ccccc3)cc2C(=O)N1CCc1ccncc1`, the Activity in experiment [1] is 76%. In addition, the EC50 in experiment [2] was found to be 900 nM.

For the molecule `O=C(NC1CCC1)c1ccc(C#Cc2cccc(F)c2)nc1`, the Activity in experiment [1] is 87%. Besides, the EC50 in experiment [2] was 16 nM.

Take `O=C1c2ccc(C#Cc3ccccc3)cc2CCN1CCN1CCOCC1`: in experiment [1], the Activity came to 84%. In addition, the EC50 in experiment [2] is 3600 nM.

With `CCCN1CCc2cc(C#Cc3ccccc3)ccc2C1=O`, the result in the experiment on Rattus norvegicus was Active. The Activity in experiment [1] amounted to 97%. In experiment [2], the EC50 was determined as 160 nM.

Turning to `O=C1NCCc2cc(C#Cc3cccc(Cl)c3)ccc21`, in experiment [1], the Activity was 68%. For the same molecule, the EC50 in experiment [2] amounted to 470 nM.

In the case of `O=C1NCc2cc(C#Cc3cccc(F)c3)ccc21`, the Activity in experiment [1] was found to be 71%. In addition, in experiment [2], the EC50 was found to be 66 nM.

With `Cc1ccccc1C#Cc1ccc2c(c1)CCNC2=O`, the Activity in experiment [1] is 53%. Moreover, in experiment [2], the EC50 was found to be 610 nM.

With `CN1CCc2cc(C#Cc3ccccc3)ccc2C1=O`, in experiment [1], the Activity stood at 53%. Besides, the EC50 in experiment [2] worked out at 250 nM.

Consider `O=C1c2ccc(C#Cc3ccccc3)cc2C(=O)N1CCN1CCOCC1`, for which, in experiment [1], the Activity stood at 44%. In experiment [2], the EC50 was found to be 5700 nM.

Take `CN1CCc2nc(C#Cc3cccc(F)c3)ccc2C1=O`: the IC50 (as a rule, the concentration that inhibits the measured activity by half) in experiment [3] is 170 nM.

For `CCCCN1CCc2cc(C#Cc3ccccc3)ccc2C1=O`, in experiment [1], the Activity stood at 97%. Moreover, in experiment [2], the EC50 came out at 96 nM.

Turning to `O=C1c2ccc(C#Cc3ccccc3)cc2CCN1CC1CCC1`, in experiment [1], the Activity amounted to 91%. The EC50 in experiment [2] came to 270 nM.

On to `COc1ccc(C#Cc2ccc3c(c2)CCNC3=O)cc1`, for which the concentration giving a half-maximal response (EC50) in experiment [2] is over 10000 nM.

For `O=C(c1ccc(C#Cc2ccccc2)cc1)N1CCC(O)CC1`, the Activity in experiment [1] was determined as 72%. Besides, the concentration for a half-maximal effect (EC50) in experiment [2] was determined as 10 nM.

As for `O=C1NCCc2cc(C#Cc3ccc(Cl)cc3)ccc21`, the EC50 in experiment [2] was over 10000 nM.

For `O=C1NCCc2cc(C#Cc3ccc(F)cc3F)ccc21`, the Activity in experiment [1] worked out at 59%. In addition, in experiment [2], the EC50 was 850 nM.

Regarding `Cc1cccc(C#Cc2ccc3c(c2)CCNC3=O)c1`, the Activity in experiment [1] is 76%. Further, the EC50 in experiment [2] came out at 170 nM.

In the case of `O=C1c2ccc(C#Cc3ccccc3)cc2C(=O)N1CCc1ccccn1`, in experiment [1], the Activity came to 40%. In addition, the EC50 in experiment [2] worked out at 870 nM.

As to `O=C1NC(=O)c2cc(C#Cc3ccc(F)cc3)ccc21`, the Activity in experiment [1] was found to be 88%. Further, the EC50 in experiment [2] is 160 nM.

Regarding `O=C1NCc2cc(C#Cc3ccccc3F)ccc21`, in experiment [1], the Activity came out at 67%. The EC50 in experiment [2] was 200 nM.

Take `CC(C)CN1CCc2nc(C#Cc3cccc(F)c3)ccc2C1=O`: the Activity in experiment [1] amounted to 40%. Moreover, in experiment [2], the EC50 worked out at 54 nM.

Regarding `Cc1cc(C#Cc2ccc3c(c2)CCNC3=O)ccc1F`, in experiment [1], the Activity came out at 53%. In addition, the EC50 in experiment [2] came to 4900 nM.

With `O=C1NCc2cc(C#Cc3ccc(F)cc3)ccc21`, the Activity in experiment [1] is 60%. Moreover, the EC50 in experiment [2] turned out to be 350 nM.

`O=C1NCCc2cc(C#Cc3ccccc3)ccc21`: in the experiment with Rattus norvegicus, the outcome was Active.

On to `CCCCN1CCc2nc(C#Cc3cccc(F)c3)ccc2C1=O`, for which the Activity in experiment [1] is 46%. Moreover, the EC50 in experiment [2] is 56 nM.

Take `O=C1NC(=O)c2cc(C#Cc3cccc(F)c3)ccc21`: the Activity in experiment [1] turned out to be 99%. Moreover, the EC50 in experiment [2] is 35 nM.

For the molecule `O=C1c2ccc(C#Cc3cccc(F)c3)nc2CCN1CC1CC1`, in experiment [3], the IC50 amounted to 660 nM.
